Measurements published in patent US12630511B2, “Benzamide derivative, preparation method therefor, and pharmaceutical composition comprising same as active ingredient for prevention or treatment of cancer” (KOREA RESEARCH INSTITUTE OF CHEMICAL TECHNOLOGY, priority 2019, dated 2026).

Tests used:
[1] = molecular target: T1, EGFR L858R/T790M/C797S mutant enzyme (Homo sapiens, UniProt P00533, C797S/L858R/T790M); assay: Inhibitory capacity against EGFR L858R/T790M/C797S mutant enzyme (Cisbio HTRF); type: biochemical; conditions: for IC50: HTRF, 1 mM ATP, 37° C. for 2 hours, 7 concentrations
T1 construct: purchased SignalChem
T1 sequence (P00533 25-1210 T790M/C797S/L858R): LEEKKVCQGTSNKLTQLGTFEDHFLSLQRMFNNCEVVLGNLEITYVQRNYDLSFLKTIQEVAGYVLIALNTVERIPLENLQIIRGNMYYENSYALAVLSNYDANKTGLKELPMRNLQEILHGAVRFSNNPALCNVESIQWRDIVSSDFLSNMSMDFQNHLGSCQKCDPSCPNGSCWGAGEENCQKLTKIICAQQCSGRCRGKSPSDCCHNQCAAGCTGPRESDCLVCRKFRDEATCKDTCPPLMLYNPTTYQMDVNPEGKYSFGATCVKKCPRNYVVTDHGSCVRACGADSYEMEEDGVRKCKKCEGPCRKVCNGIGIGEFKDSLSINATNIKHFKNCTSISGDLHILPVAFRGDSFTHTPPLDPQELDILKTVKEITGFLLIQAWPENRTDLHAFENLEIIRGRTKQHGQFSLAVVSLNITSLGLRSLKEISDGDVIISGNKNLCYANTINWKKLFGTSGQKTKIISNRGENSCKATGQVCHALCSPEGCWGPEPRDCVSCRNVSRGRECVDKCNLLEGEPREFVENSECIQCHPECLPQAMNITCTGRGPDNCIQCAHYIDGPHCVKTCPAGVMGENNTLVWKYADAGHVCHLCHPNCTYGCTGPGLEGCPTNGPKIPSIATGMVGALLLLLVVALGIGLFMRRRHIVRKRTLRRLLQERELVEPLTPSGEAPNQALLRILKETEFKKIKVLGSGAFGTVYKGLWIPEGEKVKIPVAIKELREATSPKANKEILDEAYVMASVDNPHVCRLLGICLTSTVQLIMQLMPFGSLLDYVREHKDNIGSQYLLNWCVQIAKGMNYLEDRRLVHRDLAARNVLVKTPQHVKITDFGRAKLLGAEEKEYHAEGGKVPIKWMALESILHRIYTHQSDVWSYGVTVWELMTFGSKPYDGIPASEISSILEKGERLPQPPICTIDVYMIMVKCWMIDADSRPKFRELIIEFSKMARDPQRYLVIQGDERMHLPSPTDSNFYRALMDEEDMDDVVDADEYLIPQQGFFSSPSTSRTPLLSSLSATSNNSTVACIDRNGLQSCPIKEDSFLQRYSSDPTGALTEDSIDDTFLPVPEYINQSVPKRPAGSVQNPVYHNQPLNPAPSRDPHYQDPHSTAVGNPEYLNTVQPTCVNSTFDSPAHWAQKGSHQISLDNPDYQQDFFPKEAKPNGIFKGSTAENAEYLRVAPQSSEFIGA
Protocol: Experimental Example 1: Measurement of Inhibitory Capacity Against EGFR L858R/T790M/C797S
In order to confirm the inhibitory capacity of the compounds prepared in Examples 1 to 13 provided in one aspect of the present invention against EGFR mutation, the following experiment was performed.
Particularly, the activity of the compounds of the present invention against EGFR mutant enzyme was measured using the HTRF system of Cisbio Co. As an EGFR L858R/T790M/C797S mutant enzyme, a protein provided by SignalChem was purchased and used as an enzyme source.
The composition of the assay buffer used for the activity measurement was as follows: 50 mM Tris-HCl (pH 7.5), 100 mM NaCl, 7.5 mM MgCl2, 3 mM KCl, 0.01% Tween 20, 0.1% BSA, and 1 mM DTT. Herein, an enzyme reaction was performed using a peptide substrate labeled with ATP at the concentration of 1 mM and biotin at the concentration of 0.5 μM. The analysis of the EGFR activity inhibitory effect of the compounds was performed according to the following analytical reaction recipe. • Component 1: 4 μl of EGFR mutant enzyme • Component 2: 2 μl of compound solution • Component 3: 4 μl of ATP and biotin-labeled peptide mixture
The enzyme reaction was initiated by mixing the component 1 and the component 2 first and then adding the component 3 thereto. After reacting the mixture at 37° C. for 2 hours, 10 μl of a measurement solution consisting of streptavidin-XL665 and europium-labeled anti-phosphotyrosine antibody provided by Cisbio was added to the enzyme reaction solution, followed by reaction at room temperature for 1 hour. Finally, the ratio of the fluorescence values at 615 nm and 665 nm was calculated using Envision equipment of Perkin-Elmer to quantitatively measure the enzyme activity and confirm the inhibitory ability of the compounds. The values measured at 7 concentrations of the compound were analyzed using Prism program (version 5.01, Graphpad Software, Inc.), and the IC50 value, an index of the inhibitory ability of the compound, was calculated.

[2] = test system: Ba/F3 EGFR L858R/T790M (LT) cells; assay: Anticancer activity in BaF3 cells overexpressing EGFR L858R/T790M (CellTiter-Glo), alone or combined with cetuximab; type: cell-based; conditions: cells overexpressed with EGFR L858R/T790M; combined with cetuximab; 72 hours; FIG. 1 and FIG. 2
Protocol: (§1) Experimental Example 2: Evaluation of Anticancer Activity in BaF3 Cells Overexpressed with Various EGFR Mutations
(§2) In order to confirm that the compound represented by formula 1 according to the present invention acted as an allosteric inhibitor against EGFR wild-type and mutants, the inhibitory effect on EGFR wild-type and mutants in Ba/F3 cell line was evaluated. In addition, in order to evaluate the cellular activity when the compound according to the present invention was co-administered with an existing drug, the cellular activity according to the combined administration was evaluated using Cetuximab used alone or in combination with chemotherapy in metastatic colorectal cancer and metastatic squamous head and neck cancer.
(§3) Particularly, the activity of the compound of the present invention against the wild-type and mutant Ba/F3 EGFR cell lines was measured as follows using the CellTiter-Glo system of Promega. […]
(§4) BaF3 cells were aliquoted in a 96 well cell culture plate at the density of 2500 cells/50 ul per well, to which 50 ul of the compound represented by formula 1 was treated at the concentrations of 0, 0.03, 0.1, 0.3, and 1 μM. […] Finally, the ratio of the fluorescence values at 570 nm was quantitatively measured using a luminometer, and the ability of the compound to inhibit cell viability was confirmed. […]

[3] = test system: Ba/F3 L858R/T790M/C797S (LTC) cells; assay: Anticancer activity in BaF3 cells overexpressing EGFR L858R/T790M/C797S (CellTiter-Glo), alone or combined with cetuximab; type: cell-based; conditions: cells overexpressed with EGFR L858R/T790M/C797S; combined with cetuximab; 72 hours; FIG. 1 and FIG. 2
Protocol: as §1, §2, §3, §4

| IC50 [1] [nM] | SMILES | other results |
| --- | --- | --- |
| 140 | O=C(N[C@@H](c1cc2ccccc2[nH]1)c1cc(F)ccc1O)c1cccc(-c2ccc(N3CCN(C4CCNCC4)CC3)cc2)c1 [Example 8, (R)—N-((5-fluoro-2-hydroxyphenyl)(1H-indole-2-yl)methyl)-4′-(4-(piperidine-4-yl)piperazine-1-yl)-[1,1′-biphenyl]-3-carboxamide] | – |
| 72 | CN1CCC(N2CCN(c3ccc(-c4cccc(C(=O)N[C@@H](c5cc6ccccc6[nH]5)c5cc(F)ccc5O)c4)cc3)CC2)CC1 [Example 9, (R)—N-((5-fluoro-2-hydroxyphenyl)(1H-indole-2-yl)methyl)-4′-(4-(1-methylpiperidine-4-yl)piperazine-1-yl)-[1,1′-biphenyl]-3-carboxamide] | – |
| 5900 | O=C(N[C@@H](c1cc2ccccc2[nH]1)c1cc(F)ccc1O)c1cccc(-c2ccc(N3CCCC3)cc2)c1 [Example 10, (R)—N-((5-fluoro-2-hydroxyphenyl)(1H-indole-2-yl)methyl)-4′-(pyrrolidine-1-yl)-[1,1′-biphenyl]-3-carboxamide] | – |
| 160 | N[C@@H]1CCN(c2ccc(-c3cccc(C(=O)N[C@@H](c4cc5ccccc5[nH]4)c4cc(F)ccc4O)c3)cc2)C1 [Example 11, 4′-((R)-3-aminopyrrolidine-1-yl)-N—((R)-(5-fluoro-2-hydroxyphenyl)(1H-indole-2-yl)methyl)-[1,1′-biphenyl]-3-carboxamide] | – |
| 180 | N[C@H]1CCN(c2ccc(-c3cccc(C(=O)N[C@@H](c4cc5ccccc5[nH]4)c4cc(F)ccc4O)c3)cc2)C1 [Example 12, 4′-((S)-3-aminopyrrolidine-1-yl)-N—((R)-(5-fluoro-2-hydroxyphenyl)(1H-indole-2-yl)methyl)-[1,1′-biphenyl]-3-carboxamide] | – |
| > 10000 | N[C@H]1CCN(c2ccc(-c3cccc(C(=O)N[C@@H](c4cc5ccccc5[nH]4)c4cc(Cl)ccc4O)c3)cc2)C1 [Example 13, 4′-((S)-3-aminopyrrolidine-1-yl)-N—((R)-(5-chloro-2-hydroxyphenyl)(1H-indole-2-yl)methyl)-[1,1′-biphenyl]-3-carboxamide] | – |

The remaining lines, values behind:

| SMILES | IC50 [1] [nM] | other results |
| --- | --- | --- |
| O=C(N[C@@H](c1cc2ccccc2[nH]1)c1cc(F)ccc1O)c1cccc(-c2ccc(N3CCNCC3)cc2)c1 [Example 1, (R)—N-((5-fluoro-2-hydroxyphenyl)(1H-indole-2-yl)methyl)-4′-(piperazine-1-yl)-[1,1′-biphenyl]-3-carboxamide] | 46 | – |
| CC(=O)N1CCN(c2ccc(-c3cccc(C(=O)N[C@@H](c4cc5ccccc5[nH]4)c4cc(F)ccc4O)c3)cc2)CC1 [Example 2, (R)-4′-(4-acetylpiperazine-1-yl)-N-((5-fluoro-2-hydroxyphenyl)(1H-indole-2-yl)methyl)-[1,1′-biphenyl]-3-carboxamide] | 61 | – |
| NC1CCN(c2ccc(-c3cccc(C(=O)N[C@@H](c4cc5ccccc5[nH]4)c4cc(F)ccc4O)c3)cc2)CC1 [Example 3, (R)-4′-(4-aminopiperidine-1-yl)-N-((5-fluoro-2-hydroxyphenyl)(1H-indole-2-yl)methyl)-[1,1′-biphenyl]-3-carboxamide] | 7 | anticancer activity in combination with cetuximab (cell viability relative to cetuximab only) [2]: synergistic anticancer activity; inhibitory capacity against EGFR L858R/T790M/C797S mutation (in words) ([1]; summary of Table 2): excellent inhibitory capacity; anticancer activity in combination with cetuximab (cell viability relative to cetuximab only) [3]: synergistic anticancer activity |
| NC1CCN(c2ccc(-c3cccc(C(=O)N[C@@H](c4cc5ccccc5[nH]4)c4cc(Cl)ccc4O)c3)cc2)CC1 [Example 4, (R)-4′-(4-aminopiperidine-1-yl)-N-((5-chloro-2-hydroxyphenyl)(1H-indole-2-yl)methyl)-[1,1′-biphenyl]-3-carboxamide] | 640 | – |
| CN1CCN(C2CCN(c3ccc(-c4cccc(C(=O)N[C@@H](c5cc6ccccc6[nH]5)c5cc(F)ccc5O)c4)cc3)CC2)CC1 [Example 5, (R)—N-((5-fluoro-2-hydroxyphenyl)(1H-indole-2-yl)methyl)-4′-(4-(4-methylpiperazine-1-yl)piperidine-1-yl)-[1,1′-biphenyl]-3-carboxamide] | 2600 | – |
| O=C(N[C@@H](c1cc2ccccc2[nH]1)c1cc(F)ccc1O)c1cccc(-c2ccc(N3CCC(N4CCNCC4)CC3)cc2)c1 [Example 6, (R)—N-((5-fluoro-2-hydroxyphenyl)(1H-indole-2-yl)methyl)-4′-(4-(piperazine-1-yl)piperidine-1-yl)-[1,1′-biphenyl]-3-carboxamide] | 190 | – |
| CN(C)C1CCN(c2ccc(-c3cccc(C(=O)N[C@@H](c4cc5ccccc5[nH]4)c4cc(F)ccc4O)c3)cc2)CC1 [Example 7, (R)-4′-(4-(dimethylamino)piperidine-1-yl)-N-((5-fluoro-2-hydroxyphenyl)(1H-indole-2-yl)methyl)-[1,1′-biphenyl]-3-carboxamide] | 160 | – |
